The kinase profiling compilation of Christmann-Franck et al. (2016)
“And” between values parts separate entries of the source, which are not always exact repeats. Equal values may be shown once.

Tests used:
Test in all cases: radiometric filter-binding kinase assay, Kinase HotSpot
Conditions in all cases: compound 0.5 µM; ATP 10 µM
BRSK1 (human) = BRSK1 (human) (UniProt Q8TDC3)
CSNK1D (human) = CSNK1D (human) (UniProt P48730)
CSNK1E (human) = CSNK1E (human) (UniProt P49674)
PRKG1 (human) = PRKG1 (human) (UniProt Q13976)
CLK3 (human) = CLK3 (human) (UniProt P49761)
MKNK2 (human) = MKNK2 (human) (UniProt Q9HBH9)
INSRR (human) = INSRR (human) (UniProt P14616)
ERBB2 (human) = ERBB2 (human) (UniProt P04626)
FES (human) = FES (human) (UniProt P07332)
PKN1 (human) = PKN1 (human) (UniProt Q16512)
DSTYK (human) = DSTYK (human) (UniProt Q6XUX3)
HIPK3 (human) = HIPK3 (human) (UniProt Q9H422)
MINK1 (human) = MINK1 (human) (UniProt Q8N4C8)
PRKCA (human) = PRKCA (human) (UniProt P17252)
PAK7 (human) = PAK7 (human) (UniProt Q9P286)
MAP3K14 (human) = MAP3K14 (human) (UniProt Q99558)
MAPK9 (human) = MAPK9 (human) (UniProt P45984)
FLT1 (human) = FLT1 (human) (UniProt P17948)
SYK (human) = SYK (human) (UniProt P43405)
CAMKK2 (human) = CAMKK2 (human) (UniProt Q96RR4)
MLTK (human) = MLTK (human) (UniProt Q9NYL2)
EPHA7 (human) = EPHA7 (human) (UniProt Q15375)
PHKG2 (human) = PHKG2 (human) (UniProt P15735)
SRPK3 (human) = SRPK3 (human) (UniProt Q9UPE1)
MST4 (human) = MST4 (human) (UniProt Q9P289)
CDK5 CDK5R1 p25 (human) = CDK5 CDK5R1 p25 (human) (UniProt Q00535+Q15078)
NLK (human) = NLK (human) (UniProt Q9UBE8)
CSK (human) = CSK (human) (UniProt P41240)
EPHB2 (human) = EPHB2 (human) (UniProt P29323)
DYRK1B (human) = DYRK1B (human) (UniProt Q9Y463)
JAK2 JH1 JH2 (human) = JAK2 JH1 JH2 (human) (UniProt O60674)
ULK2 (human) = ULK2 (human) (UniProt Q8IYT8)
IGF1R (human) = IGF1R (human) (UniProt P08069)
IRAK4 (human) = IRAK4 (human) (UniProt Q9NWZ3)
MAPKAPK3 (human) = MAPKAPK3 (human) (UniProt Q16644)
MARK3 (human) = MARK3 (human) (UniProt P27448)
CDK9 CCNK (human) = CDK9 CCNK (human) (UniProt O75909+P50750)
MAP3K2 (human) = MAP3K2 (human) (UniProt Q9Y2U5)
NEK6 (human) = NEK6 (human) (UniProt Q9HC98)
PRKX (human) = PRKX (human) (UniProt P51817)
ABL2 (human) = ABL2 (human) (UniProt P42684)

SRPK3 (human), sequence (Q9UPE1 whole entry, looked up): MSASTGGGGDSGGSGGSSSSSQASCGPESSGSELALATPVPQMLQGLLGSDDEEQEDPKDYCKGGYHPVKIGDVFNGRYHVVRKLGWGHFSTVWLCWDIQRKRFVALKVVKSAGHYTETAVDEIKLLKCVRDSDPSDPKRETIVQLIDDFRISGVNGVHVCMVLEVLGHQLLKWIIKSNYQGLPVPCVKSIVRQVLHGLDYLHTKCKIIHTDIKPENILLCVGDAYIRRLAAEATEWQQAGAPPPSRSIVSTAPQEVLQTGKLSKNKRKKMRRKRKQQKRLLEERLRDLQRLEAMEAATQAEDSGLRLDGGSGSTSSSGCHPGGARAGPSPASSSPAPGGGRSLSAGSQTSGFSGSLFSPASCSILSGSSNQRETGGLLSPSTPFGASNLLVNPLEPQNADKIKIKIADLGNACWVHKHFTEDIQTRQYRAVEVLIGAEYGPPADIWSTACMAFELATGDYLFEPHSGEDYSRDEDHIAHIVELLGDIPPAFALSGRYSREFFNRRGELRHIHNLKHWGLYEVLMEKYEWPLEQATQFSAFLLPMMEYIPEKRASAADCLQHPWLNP
NEK6 (human), sequence (Q9HC98 whole entry, looked up): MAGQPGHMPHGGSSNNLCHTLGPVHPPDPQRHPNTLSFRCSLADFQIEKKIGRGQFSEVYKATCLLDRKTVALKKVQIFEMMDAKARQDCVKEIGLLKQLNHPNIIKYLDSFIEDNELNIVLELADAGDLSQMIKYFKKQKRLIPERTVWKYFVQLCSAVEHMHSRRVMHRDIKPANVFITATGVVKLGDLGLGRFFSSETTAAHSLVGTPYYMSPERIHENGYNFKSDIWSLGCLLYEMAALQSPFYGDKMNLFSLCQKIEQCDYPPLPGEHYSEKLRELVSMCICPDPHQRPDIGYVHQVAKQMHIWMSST
NLK (human), sequence (Q9UBE8 whole entry, looked up): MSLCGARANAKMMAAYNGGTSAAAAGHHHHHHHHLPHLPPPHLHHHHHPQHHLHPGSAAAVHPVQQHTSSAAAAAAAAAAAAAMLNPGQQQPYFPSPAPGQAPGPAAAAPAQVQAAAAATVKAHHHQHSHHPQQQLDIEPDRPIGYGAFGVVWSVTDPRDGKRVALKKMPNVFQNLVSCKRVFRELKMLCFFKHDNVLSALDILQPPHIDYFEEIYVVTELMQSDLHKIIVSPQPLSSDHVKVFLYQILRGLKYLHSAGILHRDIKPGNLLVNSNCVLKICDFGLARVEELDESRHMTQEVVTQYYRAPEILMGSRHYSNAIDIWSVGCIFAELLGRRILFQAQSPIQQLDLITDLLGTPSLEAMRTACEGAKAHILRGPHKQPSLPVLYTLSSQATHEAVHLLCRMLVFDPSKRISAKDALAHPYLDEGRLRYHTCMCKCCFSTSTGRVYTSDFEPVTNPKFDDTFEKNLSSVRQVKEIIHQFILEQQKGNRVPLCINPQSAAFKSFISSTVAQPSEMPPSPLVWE
MAP3K14 (human), sequence (Q99558 whole entry, looked up): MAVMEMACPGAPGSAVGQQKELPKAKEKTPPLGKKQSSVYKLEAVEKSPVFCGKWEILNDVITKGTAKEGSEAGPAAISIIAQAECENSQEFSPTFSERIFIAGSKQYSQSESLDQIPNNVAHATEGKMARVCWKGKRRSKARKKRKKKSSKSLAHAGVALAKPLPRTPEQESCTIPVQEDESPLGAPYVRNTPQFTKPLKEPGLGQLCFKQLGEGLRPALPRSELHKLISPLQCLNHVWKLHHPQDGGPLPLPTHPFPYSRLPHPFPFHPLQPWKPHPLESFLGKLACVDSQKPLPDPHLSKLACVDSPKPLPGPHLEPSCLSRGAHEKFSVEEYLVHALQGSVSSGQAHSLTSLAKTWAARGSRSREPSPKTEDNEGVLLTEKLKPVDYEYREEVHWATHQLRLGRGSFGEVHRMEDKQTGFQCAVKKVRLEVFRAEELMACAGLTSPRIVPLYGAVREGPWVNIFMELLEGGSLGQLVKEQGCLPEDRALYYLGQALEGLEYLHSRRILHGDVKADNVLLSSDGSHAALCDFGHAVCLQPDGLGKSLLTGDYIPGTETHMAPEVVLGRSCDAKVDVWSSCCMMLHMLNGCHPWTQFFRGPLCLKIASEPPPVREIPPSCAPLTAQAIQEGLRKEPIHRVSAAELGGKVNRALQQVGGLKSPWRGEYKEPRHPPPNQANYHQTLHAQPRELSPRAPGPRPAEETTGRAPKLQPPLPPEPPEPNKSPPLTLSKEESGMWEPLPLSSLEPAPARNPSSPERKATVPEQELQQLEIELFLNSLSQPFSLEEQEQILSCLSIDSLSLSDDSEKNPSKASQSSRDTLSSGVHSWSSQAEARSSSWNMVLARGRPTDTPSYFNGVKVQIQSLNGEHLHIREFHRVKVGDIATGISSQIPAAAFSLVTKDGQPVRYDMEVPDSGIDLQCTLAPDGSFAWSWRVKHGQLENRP
DYRK1B (human), sequence (Q9Y463 whole entry, looked up): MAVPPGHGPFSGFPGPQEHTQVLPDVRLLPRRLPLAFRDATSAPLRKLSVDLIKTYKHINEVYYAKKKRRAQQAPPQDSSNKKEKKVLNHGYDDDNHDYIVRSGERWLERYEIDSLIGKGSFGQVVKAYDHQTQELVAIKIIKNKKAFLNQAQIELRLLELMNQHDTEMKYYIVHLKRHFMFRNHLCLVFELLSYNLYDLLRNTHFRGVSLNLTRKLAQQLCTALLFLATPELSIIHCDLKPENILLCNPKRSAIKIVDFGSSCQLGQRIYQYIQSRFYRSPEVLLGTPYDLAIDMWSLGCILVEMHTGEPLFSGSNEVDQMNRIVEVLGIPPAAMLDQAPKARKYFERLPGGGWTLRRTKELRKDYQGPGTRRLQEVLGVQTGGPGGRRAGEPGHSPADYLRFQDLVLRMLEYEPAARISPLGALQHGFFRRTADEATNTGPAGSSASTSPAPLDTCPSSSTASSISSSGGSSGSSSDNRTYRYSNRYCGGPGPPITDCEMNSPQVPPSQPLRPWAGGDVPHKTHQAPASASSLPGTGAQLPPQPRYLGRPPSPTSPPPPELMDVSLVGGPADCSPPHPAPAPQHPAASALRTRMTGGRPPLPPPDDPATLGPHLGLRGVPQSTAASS
MAPKAPK3 (human), sequence (Q16644 whole entry, looked up): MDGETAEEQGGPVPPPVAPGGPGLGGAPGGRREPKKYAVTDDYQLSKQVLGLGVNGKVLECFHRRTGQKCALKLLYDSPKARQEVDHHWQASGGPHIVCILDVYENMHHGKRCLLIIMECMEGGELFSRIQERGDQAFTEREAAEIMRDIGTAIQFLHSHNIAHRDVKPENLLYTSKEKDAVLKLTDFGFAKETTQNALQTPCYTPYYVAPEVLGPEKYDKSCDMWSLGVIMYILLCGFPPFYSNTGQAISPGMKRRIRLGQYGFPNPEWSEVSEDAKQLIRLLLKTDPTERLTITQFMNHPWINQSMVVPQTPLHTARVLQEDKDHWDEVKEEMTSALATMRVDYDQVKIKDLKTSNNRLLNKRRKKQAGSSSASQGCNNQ
JAK2 JH1 JH2 (human), sequence (O60674 whole entry, looked up): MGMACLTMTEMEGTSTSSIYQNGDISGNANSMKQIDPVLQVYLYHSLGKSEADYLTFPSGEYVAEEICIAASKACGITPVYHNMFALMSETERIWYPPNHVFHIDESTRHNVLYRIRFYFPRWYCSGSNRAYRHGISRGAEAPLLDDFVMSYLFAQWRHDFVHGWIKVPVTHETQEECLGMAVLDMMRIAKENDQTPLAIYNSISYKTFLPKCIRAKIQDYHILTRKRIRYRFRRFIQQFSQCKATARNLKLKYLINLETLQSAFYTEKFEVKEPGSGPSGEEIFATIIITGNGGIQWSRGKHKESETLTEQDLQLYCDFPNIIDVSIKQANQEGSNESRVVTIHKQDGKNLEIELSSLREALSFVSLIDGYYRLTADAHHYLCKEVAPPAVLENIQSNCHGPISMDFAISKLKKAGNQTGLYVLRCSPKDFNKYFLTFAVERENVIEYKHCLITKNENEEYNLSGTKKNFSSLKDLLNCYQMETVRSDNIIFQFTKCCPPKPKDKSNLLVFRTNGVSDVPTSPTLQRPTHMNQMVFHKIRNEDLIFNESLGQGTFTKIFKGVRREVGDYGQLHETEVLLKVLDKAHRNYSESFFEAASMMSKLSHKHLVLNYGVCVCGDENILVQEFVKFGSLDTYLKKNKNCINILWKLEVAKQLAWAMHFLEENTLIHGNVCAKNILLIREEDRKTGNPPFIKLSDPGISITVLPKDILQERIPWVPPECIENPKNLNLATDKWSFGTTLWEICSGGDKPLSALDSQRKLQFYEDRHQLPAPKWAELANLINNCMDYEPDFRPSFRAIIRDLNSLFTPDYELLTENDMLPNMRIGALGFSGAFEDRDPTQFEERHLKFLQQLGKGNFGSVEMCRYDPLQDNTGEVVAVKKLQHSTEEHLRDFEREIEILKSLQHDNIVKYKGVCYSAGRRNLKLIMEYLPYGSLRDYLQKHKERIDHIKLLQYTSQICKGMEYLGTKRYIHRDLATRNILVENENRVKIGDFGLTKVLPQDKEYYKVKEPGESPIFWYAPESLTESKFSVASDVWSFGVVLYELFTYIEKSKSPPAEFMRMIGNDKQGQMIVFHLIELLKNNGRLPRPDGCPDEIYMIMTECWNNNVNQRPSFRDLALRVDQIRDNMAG
PHKG2 (human), sequence (P15735 whole entry, looked up): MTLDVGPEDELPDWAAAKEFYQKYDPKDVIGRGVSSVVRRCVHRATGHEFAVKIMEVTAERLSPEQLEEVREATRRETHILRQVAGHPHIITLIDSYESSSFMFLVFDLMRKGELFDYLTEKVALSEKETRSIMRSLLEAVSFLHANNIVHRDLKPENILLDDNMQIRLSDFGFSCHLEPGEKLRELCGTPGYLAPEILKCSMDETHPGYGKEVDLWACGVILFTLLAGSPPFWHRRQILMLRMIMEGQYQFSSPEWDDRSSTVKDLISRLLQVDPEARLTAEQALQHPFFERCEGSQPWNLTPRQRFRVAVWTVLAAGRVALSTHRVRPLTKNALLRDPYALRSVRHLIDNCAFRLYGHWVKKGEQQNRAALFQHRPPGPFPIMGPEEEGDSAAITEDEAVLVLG

In the case of `COc1cc2c(cc1OC)-c1[nH]nc(Nc3cccc(F)c3)c1C2`, the residual activity (BRSK1 (human)) was 89.3%, the residual activity (CSNK1D (human)) was 99.9% and the residual activity (CSNK1E (human)) was 94.3%. For the same molecule, the residual activity (PRKG1 (human)) was 104% and 95.2%, the residual activity (CLK3 (human)) was 96.5% and the residual activity (MKNK2 (human)) was 91.5%. It also gave a residual activity (INSRR (human)) of 99.2%, a residual activity (ERBB2 (human)) of 101% and a residual activity (FES (human)) of 95.6%. The residual activity (PKN1 (human)) was 106%, the residual activity (DSTYK (human)) was 93.3% and the residual activity (HIPK3 (human)) was 100%. The residual activity (MINK1 (human)) was 83.6%, the residual activity (PRKCA (human)) was 99.2% and the residual activity (PAK7 (human)) was 93.2%. It also gave a residual activity (MAP3K14 (human)) of 105%, a residual activity (MAPK9 (human)) of 75.9% and a residual activity (FLT1 (human)) of 82.6%. It also gave a residual activity (SYK (human)) of 103%, a residual activity (CAMKK2 (human)) of 86.8% and a residual activity (MLTK (human)) of 44.7%. It also gave a residual activity (EPHA7 (human)) of 98%, a residual activity (PHKG2 (human)) of 121% and a residual activity (SRPK3 (human)) of 99.7%. The residual activity (MST4 (human)) was 97%, the residual activity (CDK5 CDK5R1 p25 (human)) was 89% and the residual activity (NLK (human)) was 74.1%. For the same molecule, the residual activity (CSK (human)) was 44.9%, the residual activity (EPHB2 (human)) was 94.8% and the residual activity (DYRK1B (human)) was 102%. The residual activity (JAK2 JH1 JH2 (human)) was 107%, the residual activity (ULK2 (human)) was 97.3% and the residual activity (IGF1R (human)) was 93.9%. The residual activity (IRAK4 (human)) was 70%, the residual activity (MAPKAPK3 (human)) was 90.8% and the residual activity (MARK3 (human)) was 69.9%. It also gave a residual activity (CDK9 CCNK (human)) of 91.9%, a residual activity (MAP3K2 (human)) of 84.5% and a residual activity (NEK6 (human)) of 105%. For the same molecule, the residual activity (PRKX (human)) was 103% and the residual activity (ABL2 (human)) was 21.4%.
In the case of `COc1cc2c(Nc3ccc(Br)cc3F)ncnc2cc1OCC1CCN(C)CC1`, the residual activity (BRSK1 (human)) was 97.1%, the residual activity (CSNK1D (human)) was 94.4% and the residual activity (PRKG1 (human)) was 96.6% and 99.8%. The residual activity (CLK3 (human)) was 100%, the residual activity (MKNK2 (human)) was 86.9% and the residual activity (INSRR (human)) was 105%. It also gave a residual activity (ERBB2 (human)) of 72.2%, a residual activity (FES (human)) of 104% and a residual activity (PKN1 (human)) of 103%. For the same molecule, the residual activity (DSTYK (human)) was 96%, the residual activity (HIPK3 (human)) was 99.5% and the residual activity (MINK1 (human)) was 81.5%. It also gave a residual activity (PRKCA (human)) of 97.1%, a residual activity (PAK7 (human)) of 93.5% and a residual activity (MAP3K14 (human)) of 155%. The residual activity (MAPK9 (human)) was 96.4%, the residual activity (SYK (human)) was 101% and the residual activity (CAMKK2 (human)) was 102%. For the same molecule, the residual activity (EPHA7 (human)) was 31.8%, the residual activity (PHKG2 (human)) was 99.1% and the residual activity (SRPK3 (human)) was 102%. For the same molecule, the residual activity (MST4 (human)) was 102%, the residual activity (CDK5 CDK5R1 p25 (human)) was 97.8% and the residual activity (NLK (human)) was 96.2%. The residual activity (CSK (human)) was 54.4%, the residual activity (EPHB2 (human)) was 24.4% and the residual activity (DYRK1B (human)) was 93%. The residual activity (JAK2 JH1 JH2 (human)) was 102%, the residual activity (ULK2 (human)) was 108% and the residual activity (IGF1R (human)) was 94.6%. It also gave a residual activity (IRAK4 (human)) of 35.3%, a residual activity (MAPKAPK3 (human)) of 98.5% and a residual activity (MARK3 (human)) of 106%. For the same molecule, the residual activity (MAP3K2 (human)) was 108%, the residual activity (NEK6 (human)) was 96.9% and the residual activity (PRKX (human)) was 105%. It also gave a residual activity (ABL2 (human)) of 14%.
`CN[C@@H]1C[C@H]2O[C@@](C)([C@@H]1OC)n1c3ccccc3c3c4c(c5c6ccccc6n2c5c31)C(=O)NC4` was tested, and the residual activity (PHKG2 (human)) was 3.42%, the residual activity (MST4 (human)) was 4.43% and the residual activity (CDK5 CDK5R1 p25 (human)) was 2.78%. The residual activity (CSK (human)) was 8.01%, the residual activity (CDK9 CCNK (human)) was 9.24% and the residual activity (ABL2 (human)) was 5.25%.
Molecule `FC(F)(F)c1ccc(/C=C/c2nc(COc3ccc(CCCCn4ccnn4)cc3)co2)cc1` has a residual activity (BRSK1 (human)) of 103%, a residual activity (CSNK1D (human)) of 96.6% and a residual activity (CSNK1E (human)) of 95.5%. For the same molecule, the residual activity (PRKG1 (human)) was 75.9% and 98.1%, the residual activity (CLK3 (human)) was 92.2% and the residual activity (MKNK2 (human)) was 101%. The residual activity (INSRR (human)) was 101%, the residual activity (ERBB2 (human)) was 102% and the residual activity (FES (human)) was 102%. It also gave a residual activity (PKN1 (human)) of 97%, a residual activity (DSTYK (human)) of 88.8% and a residual activity (HIPK3 (human)) of 100%. The residual activity (MINK1 (human)) was 96.8%, the residual activity (PRKCA (human)) was 111% and the residual activity (PAK7 (human)) was 89.4%. It also gave a residual activity (MAP3K14 (human)) of 95.8%, a residual activity (MAPK9 (human)) of 106% and a residual activity (FLT1 (human)) of 95.5%. It also gave a residual activity (SYK (human)) of 97.4%, a residual activity (CAMKK2 (human)) of 101% and a residual activity (MLTK (human)) of 98.5%. The residual activity (EPHA7 (human)) was 95.2%, the residual activity (PHKG2 (human)) was 93.5% and the residual activity (SRPK3 (human)) was 104%. The residual activity (MST4 (human)) was 98%, the residual activity (NLK (human)) was 101% and the residual activity (CSK (human)) was 106%. The residual activity (EPHB2 (human)) was 98.3%, the residual activity (DYRK1B (human)) was 96.7% and the residual activity (JAK2 JH1 JH2 (human)) was 98.9%. It also gave a residual activity (ULK2 (human)) of 99.6%, a residual activity (IGF1R (human)) of 101% and a residual activity (IRAK4 (human)) of 97.7%. It also gave a residual activity (MAPKAPK3 (human)) of 98.9%, a residual activity (MARK3 (human)) of 96.6% and a residual activity (CDK9 CCNK (human)) of 105%. The residual activity (MAP3K2 (human)) was 102%, the residual activity (NEK6 (human)) was 92.6% and the residual activity (PRKX (human)) was 95.3%.
